Patent publication US20110009351A1, “SCREENING ASSAY TO IDENTIFY CORRECTORS OF PROTEIN TRAFFICKING DEFECTS” (Traffick Therepeutics Inc., priority 2007, published 2011)
Structures can show the parent of a compound that is named as a salt.

What was measured:
Type in all cases: cell-based
[1] = target: T1, ΔF508-CFTR (Homo sapiens, UniProt P13569, DEL508-508); parameters: which was then ligated into full length pNUT-CFTR linearized using Hpa1 and Pml1; expressed in transfected cells; settings: for hit in screen (class letter) / hit in screen (score): Prestwick library, initial corrector assay; for hit in screen (class letter): BHK cells; for hit in screen (score): standard deviations above untreated controls
T1 sequence (P13569 with tags, fused parts or gaps DEL508-508): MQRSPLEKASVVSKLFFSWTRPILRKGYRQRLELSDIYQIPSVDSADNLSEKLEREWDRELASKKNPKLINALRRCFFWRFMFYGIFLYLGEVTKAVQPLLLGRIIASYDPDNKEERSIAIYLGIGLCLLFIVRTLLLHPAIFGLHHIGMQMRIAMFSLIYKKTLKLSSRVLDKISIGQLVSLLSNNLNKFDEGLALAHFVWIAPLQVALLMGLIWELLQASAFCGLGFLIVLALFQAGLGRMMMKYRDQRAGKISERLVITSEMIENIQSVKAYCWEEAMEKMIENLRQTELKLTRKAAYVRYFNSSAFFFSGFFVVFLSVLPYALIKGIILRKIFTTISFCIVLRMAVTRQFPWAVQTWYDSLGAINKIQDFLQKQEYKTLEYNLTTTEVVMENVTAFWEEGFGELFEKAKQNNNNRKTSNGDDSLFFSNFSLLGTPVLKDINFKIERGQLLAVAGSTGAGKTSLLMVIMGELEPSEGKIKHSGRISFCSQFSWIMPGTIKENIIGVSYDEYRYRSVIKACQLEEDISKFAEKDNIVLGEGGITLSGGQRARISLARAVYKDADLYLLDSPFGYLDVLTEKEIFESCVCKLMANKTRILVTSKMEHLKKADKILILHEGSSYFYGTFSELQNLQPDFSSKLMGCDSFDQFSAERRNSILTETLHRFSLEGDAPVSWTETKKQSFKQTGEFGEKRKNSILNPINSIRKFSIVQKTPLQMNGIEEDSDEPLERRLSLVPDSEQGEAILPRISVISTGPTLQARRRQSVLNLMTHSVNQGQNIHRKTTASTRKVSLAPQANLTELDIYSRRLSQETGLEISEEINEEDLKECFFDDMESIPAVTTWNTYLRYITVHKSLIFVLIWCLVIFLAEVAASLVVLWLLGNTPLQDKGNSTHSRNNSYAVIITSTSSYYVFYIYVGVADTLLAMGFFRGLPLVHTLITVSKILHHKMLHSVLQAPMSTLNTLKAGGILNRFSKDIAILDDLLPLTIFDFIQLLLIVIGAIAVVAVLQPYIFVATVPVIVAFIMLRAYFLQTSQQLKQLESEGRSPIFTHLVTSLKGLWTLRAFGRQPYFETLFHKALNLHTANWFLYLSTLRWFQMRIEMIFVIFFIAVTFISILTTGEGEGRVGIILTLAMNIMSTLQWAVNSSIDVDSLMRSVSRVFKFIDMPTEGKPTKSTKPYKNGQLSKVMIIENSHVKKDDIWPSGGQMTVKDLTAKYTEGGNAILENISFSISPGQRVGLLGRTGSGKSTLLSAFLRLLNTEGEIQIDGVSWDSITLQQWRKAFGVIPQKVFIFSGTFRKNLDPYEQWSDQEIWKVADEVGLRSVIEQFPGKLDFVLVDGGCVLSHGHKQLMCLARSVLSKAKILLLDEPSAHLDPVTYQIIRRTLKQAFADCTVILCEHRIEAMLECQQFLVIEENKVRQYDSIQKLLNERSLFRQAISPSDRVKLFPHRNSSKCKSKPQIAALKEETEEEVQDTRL
Method in brief: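 BHK cells stably expressing 3HA-tagged ΔF508-CFTR (tags in fourth extracellular loop) treated with compound at 20 μM final for 24 h at 37° C. Surface ΔF508-CFTR measured on fixed, non-permeabilised cells by anti-HA/FITC immunofluorescence (488/510 nm), relative to untreated-well background; hits retested in duplicate, intrinsically fluorescent compounds excluded.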

[2] = target: T1, ΔF508-CFTR; experiment: three stage ELISA of CFTR surface expression, BHK cells expressing ΔF508-CFTR; parameters: which was then ligated into full length pNUT-CFTR linearized using Hpa1 and Pml1; expressed in transfected cells; settings: 10% glycerol or 1 mM sodium 4-phenylbutyrate, 24 hours
Procedure: Cells were screened for CFTR surface expression using a three stage ELISA system (Pierce Inc., USA). Briefly, BHK cells expressing 3HA-tagged ΔF508-CFTR were seeded in 96-well plates (Corning, USA) at 30,000 cells per well and incubated for 24 h at 37° C. Each well was treated with a test compound for 24 h, then cells were fixed in 4% paraformaldehyde solution and washed with PBS containing 0.1% bovine serum albumin and 0.05% tween-20. Cells were blocked for 1 h in solution containing 3% normal horse serum in PBS at room temperature. […] After washing four more times, the cells were exposed to 3,3′,5,5′ tetramethylbenzidine (Pierce Inc., USA) for 15 min, sulphuric acid (2M) was added, and absorbance was measured at 450 nm (Power-Wavex Bio-tek Instruments).
To determine if cell surface expression of CFTR could be quantified in a high-throughput screen using this assay, cells expressing tagged versions of wt or ΔF508-CFTR were seeded in 96-well plates, treated with 10% glycerol and monitored as light absorbance using an enzyme-linked assay system. As expected, untreated ΔF508-CFTR cells had low absorbance since they expressed little CFTR on their cell surface under control conditions (FIG. 3A).

[3] = target: T2, F508del CFTR (Homo sapiens, UniProt P13569, DEL508-508); experiment: YFP fluorescence quenching functional assay (iodide influx), HEK293 cells with F508del CFTR and halide sensitive YFP; settings: for remaining activity at 10 µM: HEK293, read-out: % YFP quench; for remaining activity at 10 µM / % YFP quench: 24 h, nc = 100% pc = 69.2, 10 μM
T2 construct: expressed in transfected cells; host or cells: HEK293 Griptite cells stably expressing F508del CFTR, transiently transfected with halide-sensitive eYFP
T2 sequence (P13569 with tags, fused parts or gaps DEL508-508): as above
Method in brief: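 HEK293 Griptite cells stably expressing F508del CFTR, transiently transfected with halide-sensitive eYFP, treated 24 h with 10 μM compound in triplicate, then stimulated 20 min with 25 μM forskolin, 45 μM IBMX and 50 μM genistein. YFP quench after 50 mM iodide imaged 15 times over 40 s on 150-300 cells/well.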

SMILES | increase in signal, suitability as positive control for the corrector assay screen ([1]; kifunesine 100 μM, Sodium 4 Phenylbutyrate 1 mM, curcumin 40 μM, 24 hours) | plasma membrane signal (absorbance), words [2] | hit in screen (class letter) [1] | hit in screen (score) [1] | remaining activity at 10 µM [3] | % YFP quench [3] | Bart's scores ([3]; Functional assay, Prestwick compounds, positive tests / tests)
O=C([O-])CCCc1ccccc1.[Na+] [sodium 4-phenylbutyrate] | not sufficient to act as a positive control | increased the plasma membrane signal |  |  |  |  | 
c1ccc2c(c1)OCC(C1=NCCN1)O2 (stereo not drawn) [Idazoxan hydrochloride] |  |  | W (Medium and weak hits were defined as compounds giving a cell fluorescence signal that was between 2 and 3 or 1 and 2 standard deviations, respectively, above untreated control wells) | 1.0 | 103% |  | 
O=C(O)[C@H](O)[C@@H](O)[C@H](O[C@@H]1O[C@H](CO)[C@H](O)[C@H](O)[C@H]1O)[C@H](O)CO [Lactoblonic acid] |  |  | W (Medium and weak hits were defined as compounds giving a cell fluorescence signal that was between 2 and 3 or 1 and 2 standard deviations, respectively, above untreated control wells) | 1.2 |  | 78% | 
Nc1ccc(S(=O)(=O)c2ccc(N)cc2)cc1 [Dapsone] |  |  | W (Medium and weak hits were defined as compounds giving a cell fluorescence signal that was between 2 and 3 or 1 and 2 standard deviations, respectively, above untreated control wells) | 1.1 | 88% |  | 
Cc1cc(N)c2ccccc2[n+]1CCCCCCCCCC[n+]1c(C)cc(N)c2ccccc21.[Cl-].[Cl-] [Dequalinlum dichloride] |  |  | M (Medium and weak hits were defined as compounds giving a cell fluorescence signal that was between 2 and 3 or 1 and 2 standard deviations, respectively, above untreated control wells) | 2.2 |  | 102% | 
CC(C(=O)O)c1ccc(-c2ccccc2)c(F)c1 (stereo not drawn) [Flubiprofen] |  |  | W (Medium and weak hits were defined as compounds giving a cell fluorescence signal that was between 2 and 3 or 1 and 2 standard deviations, respectively, above untreated control wells) | 1.0 | 98% |  | 
COc1cc(C)nc(-n2nc(C)cc2OC)n1 [Epirizole] |  |  | W (Medium and weak hits were defined as compounds giving a cell fluorescence signal that was between 2 and 3 or 1 and 2 standard deviations, respectively, above untreated control wells) | 1.3 | 115% |  | 0/5
C[C@@H]1CCC[C@H](C)N1NC(=O)c1ccc(Cl)c(S(N)(=O)=O)c1 [Clopamide] |  |  | W (Medium and weak hits were defined as compounds giving a cell fluorescence signal that was between 2 and 3 or 1 and 2 standard deviations, respectively, above untreated control wells) | 1.1 | 79% |  | 
CN(C)CCOC(=O)COc1ccc(Cl)cc1.Cl [Meciofenoxate hydrochloride] |  |  | W (Medium and weak hits were defined as compounds giving a cell fluorescence signal that was between 2 and 3 or 1 and 2 standard deviations, respectively, above untreated control wells) | 1.1 |  | 877% | 
